In ChEMBL document CHEMBL5154702, “Synthesis and biological evaluation of aminobenzamides containing purine moiety as class I histone deacetylases inhibitors” (Bioorg Med Chem, 2022):
The source made the active and inactive calls. No cut-off for these calls is given here.

How the values were obtained:
[1] = tested on: HCT-116; test: Cell cycle arrest in human HCT-116 cells assessed as up regulation of Bax expression measured after 24 hrs by Western blot analysis; type: functional, cell-based; settings: dose 0.1-10 µM, DDE = dose-dependent effect
[2] = target: Histone deacetylase; type: cell-based, Homo sapiens; settings: hela
[3] = Half life in rat liver microsomes at 13.8 uM by HPLC analysis; type: ADME, Microsome
[4] = tested on: HCT-116; test: Cell cycle arrest in human HCT-116 cells assessed as down regulation of CDK2 expression measured after 24 hrs by Western blot analysis; type: functional, cell-based; settings: dose 0.1-10 µM, DDE = dose-dependent effect
[5] = tested on: HCT-116; test: Induction of apoptosis in human HCT-116 cells assessed as late apoptotic cells at 1 uM measured after 24 hrs by Annexin V-FITC/propidium iodide staining based flow cytometry (reference value: 3.43%); type: functional
[6] = tested on: HCT-116; test: Induction of cell morphological changes in human HCT-116 cells assessed as cell shrinkage at 0.5 to 5 uM measured after 24 hrs by phase contrast microscopy; type: functional, cell-based; settings: dose 0.5-5 µM
[7] = tested on: HCT-116; test: Cell cycle arrest in human HCT-116 cells assessed as accumulation of cells at G0/G1 phase at 1 uM measured after 24 hrs by propidium iodide staining based flow cytometry (reference value: 58.05%); type: functional
[8] = tested on: HCT-116; test: Cell cycle arrest in human HCT-116 cells assessed as increase in accumulation of cells at G0/G1 phase measured after 24 hrs by propidium iodide staining based flow cytometry; type: functional; settings: dose 0.1-10 µM, DDE = dose-dependent effect
[9] = tested on: HCT-116; test: Induction of apoptosis in human HCT-116 cells assessed as necrotic cells at 0.5 uM measured after 24 hrs by Annexin V-FITC/propidium iodide staining based flow cytometry (reference value: 7.39%); type: functional
[10] = tested on: HCT-116; test: Induction of cell morphological changes in human HCT-116 cells assessed as […] deformation at 0.5 to 5 uM measured after 24 hrs by phase contrast microscopy; type: functional, cell-based; settings: dose 0.5-5 µM
[11] = tested on: HCT-116; test: Induction of apoptosis in human HCT-116 cells assessed as late apoptotic cells at 0.5 uM measured after 24 hrs by Annexin V-FITC/propidium iodide staining based flow cytometry (reference value: 3.43%); type: functional
[12] = tested on: HCT-116; test: Induction of apoptosis in human HCT-116 cells assessed as early apoptotic cells at 0.5 uM measured after 24 hrs by Annexin V-FITC/propidium iodide staining based flow cytometry (reference value: 1.87%); type: functional
[13] = target: Histone deacetylase 1 (Homo sapiens, UniProt Q13547); test: Inhibition of recombinant human full-length C-terminal Flag-His6-tagged HDAC1 (1 to 482 residues) expressed in Sf9 insect cells using fluorogenic HDAC substrate measured after 30 mins by fluorimetry
Chain of Histone deacetylase 1 (Q13547 whole entry, the tested form may be a part): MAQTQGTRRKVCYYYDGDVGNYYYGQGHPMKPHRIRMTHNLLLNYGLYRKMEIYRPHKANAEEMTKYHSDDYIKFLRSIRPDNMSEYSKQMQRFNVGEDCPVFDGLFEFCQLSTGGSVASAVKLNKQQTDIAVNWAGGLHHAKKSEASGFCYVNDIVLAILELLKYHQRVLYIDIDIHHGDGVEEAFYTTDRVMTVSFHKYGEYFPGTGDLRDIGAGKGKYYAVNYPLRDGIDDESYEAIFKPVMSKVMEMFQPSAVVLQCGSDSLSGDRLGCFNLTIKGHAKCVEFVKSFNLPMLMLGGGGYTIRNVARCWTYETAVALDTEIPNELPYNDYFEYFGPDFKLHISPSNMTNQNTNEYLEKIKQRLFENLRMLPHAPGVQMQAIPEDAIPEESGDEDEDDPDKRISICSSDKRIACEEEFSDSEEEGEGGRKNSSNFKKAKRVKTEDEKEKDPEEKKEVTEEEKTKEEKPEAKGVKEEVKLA

[14] = Intrinsic clearance in rat liver microsomes assessed per mg protein at 13.8 uM by HPLC analysis; type: ADME, Microsome
[15] = target: Histone deacetylase 3/Nuclear receptor corepressor 2 (HDAC3/NCoR2) (Homo sapiens, UniProt O15379); test: biochemical; set-up: species or system Sf9
Chain of Histone deacetylase 3/Nuclear receptor corepressor 2 (HDAC3/NCoR2) (O15379 whole entry): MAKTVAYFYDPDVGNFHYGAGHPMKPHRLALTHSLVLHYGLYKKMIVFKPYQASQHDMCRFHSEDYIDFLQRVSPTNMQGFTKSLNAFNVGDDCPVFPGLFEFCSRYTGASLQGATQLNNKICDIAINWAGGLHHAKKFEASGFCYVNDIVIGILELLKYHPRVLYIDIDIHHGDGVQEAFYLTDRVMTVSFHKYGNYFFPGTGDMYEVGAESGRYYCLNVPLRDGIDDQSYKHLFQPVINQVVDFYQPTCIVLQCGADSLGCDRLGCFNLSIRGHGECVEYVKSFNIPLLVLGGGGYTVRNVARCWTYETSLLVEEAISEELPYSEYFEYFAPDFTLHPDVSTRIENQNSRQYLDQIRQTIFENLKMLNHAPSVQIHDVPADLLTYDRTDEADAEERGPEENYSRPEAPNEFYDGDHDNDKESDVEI
Chain of Histone deacetylase 3/Nuclear receptor corepressor 2 (HDAC3/NCoR2) (Q9Y618 whole entry, further chain): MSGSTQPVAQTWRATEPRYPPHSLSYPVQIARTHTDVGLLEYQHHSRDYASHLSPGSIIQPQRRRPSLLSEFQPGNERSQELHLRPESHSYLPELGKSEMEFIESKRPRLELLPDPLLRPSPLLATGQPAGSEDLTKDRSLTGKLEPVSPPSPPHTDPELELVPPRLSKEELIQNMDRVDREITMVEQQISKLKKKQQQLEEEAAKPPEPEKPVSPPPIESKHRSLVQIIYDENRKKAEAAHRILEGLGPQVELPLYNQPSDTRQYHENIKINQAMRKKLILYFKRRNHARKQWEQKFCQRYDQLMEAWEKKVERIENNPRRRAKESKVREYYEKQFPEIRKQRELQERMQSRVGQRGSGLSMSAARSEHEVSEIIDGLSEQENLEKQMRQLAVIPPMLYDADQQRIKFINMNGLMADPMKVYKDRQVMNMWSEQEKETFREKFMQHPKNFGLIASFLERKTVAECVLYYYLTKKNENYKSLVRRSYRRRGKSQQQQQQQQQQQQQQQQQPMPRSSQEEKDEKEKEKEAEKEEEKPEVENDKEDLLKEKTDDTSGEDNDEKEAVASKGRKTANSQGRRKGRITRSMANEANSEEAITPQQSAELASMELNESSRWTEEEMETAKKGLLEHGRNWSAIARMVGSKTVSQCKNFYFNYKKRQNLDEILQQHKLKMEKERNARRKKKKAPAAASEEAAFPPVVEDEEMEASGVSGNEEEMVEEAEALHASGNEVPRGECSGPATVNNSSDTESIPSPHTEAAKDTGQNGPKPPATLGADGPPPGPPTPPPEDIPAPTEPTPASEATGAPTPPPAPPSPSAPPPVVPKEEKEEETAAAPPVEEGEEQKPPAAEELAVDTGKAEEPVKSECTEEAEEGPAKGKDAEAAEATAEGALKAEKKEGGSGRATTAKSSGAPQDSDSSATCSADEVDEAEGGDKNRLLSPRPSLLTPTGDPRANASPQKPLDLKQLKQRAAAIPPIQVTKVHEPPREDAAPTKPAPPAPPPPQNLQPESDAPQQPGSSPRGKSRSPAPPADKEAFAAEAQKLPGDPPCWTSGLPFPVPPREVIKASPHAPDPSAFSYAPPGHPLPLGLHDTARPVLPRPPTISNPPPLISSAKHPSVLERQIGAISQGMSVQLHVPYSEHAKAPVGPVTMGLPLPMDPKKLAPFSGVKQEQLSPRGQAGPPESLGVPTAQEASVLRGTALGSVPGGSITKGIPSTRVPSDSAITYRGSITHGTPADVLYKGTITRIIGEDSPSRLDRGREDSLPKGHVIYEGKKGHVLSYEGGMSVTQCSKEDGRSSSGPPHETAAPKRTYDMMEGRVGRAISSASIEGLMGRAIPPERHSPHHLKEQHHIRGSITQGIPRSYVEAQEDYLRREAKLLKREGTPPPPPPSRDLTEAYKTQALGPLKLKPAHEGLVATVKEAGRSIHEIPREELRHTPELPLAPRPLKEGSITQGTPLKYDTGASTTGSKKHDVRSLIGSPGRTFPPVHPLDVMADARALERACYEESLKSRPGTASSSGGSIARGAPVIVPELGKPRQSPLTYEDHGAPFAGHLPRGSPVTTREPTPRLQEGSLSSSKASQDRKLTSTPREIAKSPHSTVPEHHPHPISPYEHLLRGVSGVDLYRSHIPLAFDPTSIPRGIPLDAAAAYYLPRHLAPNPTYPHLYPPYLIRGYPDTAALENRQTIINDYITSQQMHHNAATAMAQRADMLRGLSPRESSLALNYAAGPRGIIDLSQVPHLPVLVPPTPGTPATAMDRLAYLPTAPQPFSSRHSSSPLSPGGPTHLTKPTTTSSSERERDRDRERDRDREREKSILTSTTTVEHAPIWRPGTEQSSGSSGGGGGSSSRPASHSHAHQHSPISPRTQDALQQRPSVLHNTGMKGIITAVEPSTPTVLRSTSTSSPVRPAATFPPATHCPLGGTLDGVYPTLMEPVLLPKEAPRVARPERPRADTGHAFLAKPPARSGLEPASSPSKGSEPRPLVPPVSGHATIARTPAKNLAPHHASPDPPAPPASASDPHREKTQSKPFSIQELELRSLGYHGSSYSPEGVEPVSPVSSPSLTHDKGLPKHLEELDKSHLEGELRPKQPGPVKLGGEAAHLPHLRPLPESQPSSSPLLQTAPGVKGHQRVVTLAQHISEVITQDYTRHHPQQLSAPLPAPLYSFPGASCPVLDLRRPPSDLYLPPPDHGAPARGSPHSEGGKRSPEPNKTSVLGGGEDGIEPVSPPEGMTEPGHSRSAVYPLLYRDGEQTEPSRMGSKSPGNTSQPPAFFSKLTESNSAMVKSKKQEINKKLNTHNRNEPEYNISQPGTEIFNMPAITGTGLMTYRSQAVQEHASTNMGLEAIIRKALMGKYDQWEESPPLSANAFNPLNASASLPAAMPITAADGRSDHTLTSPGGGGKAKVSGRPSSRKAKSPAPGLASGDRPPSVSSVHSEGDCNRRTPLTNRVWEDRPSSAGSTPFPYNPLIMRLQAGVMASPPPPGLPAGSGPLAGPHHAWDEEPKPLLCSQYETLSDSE

[16] = tested on: HCT-116; test: Induction of apoptosis in human HCT-116 cells assessed as early apoptotic cells at 1 uM measured after 24 hrs by Annexin V-FITC/propidium iodide staining based flow cytometry (reference value: 1.87%); type: functional

Q: For `CCCCNc1nc(Cl)nc2c1ncn2Cc1ccc(C(=O)Nc2ccccc2N)cc1`, which Activity [1] is on record?
A: Dde

Q: What about the IC50 [2] of the same compound?
A: 27.5 nM

Q: And the half-life at 13.8 µM [3]?
A: 1.2 h

Q: And the Activity [4]?
A: Dde

Q: And the Activity [5]?
A: 8.94%

Q: What about the Activity [6] of the same compound?
A: Active

Q: And the Activity [7]?
A: 66.71%

Q: What about the Activity [8] of the same compound?
A: Dde

Q: And the Activity [9]?
A: 0.442%

Q: What about the Activity [10] of the same compound?
A: Active

Q: And the Activity [11]?
A: 2.12%

Q: And the Activity [12]?
A: 33.1%

Q: And the IC50 [13]?
A: 55.1 nM

Q: What about the CLint [14] of the same compound?
A: 9.6 µL/min/mg

Q: And the IC50 [15]?
A: 1240 nM

Q: What about the Activity [16] of the same compound?
A: 49.4%
